Data reported in patent publication US10273242B2, “Compound inhibiting activities of BTK and/or JAK3 kinases” (BEIJING HANMI PHARMACEUTICAL CO., LTD., priority 2013, dated 2019).

Legend:
BTK kinase = target: T1, BTK kinase (Homo sapiens, UniProt Q06187); experiment: BTK kinase activity inhibition assay (ADP-Glo); assay type: biochemical; conditions: ATP 50 μM
T1 construct: purchased Invitrogen PV3363
Experimental: The BTK kinase (purchased from Invitrogen, No.: PV3363) was diluted with reaction buffer (40 mM Tris-HCl, pH 7.5; 20 mM MgCl2, 0.1 mg/ml BSA; 1 mM DTT; 2 mM MnCl2) to 2 times of the final concentration (which is 1.1 ng/μL) and added with 5 μL/well to a 96-well plate. The compounds of the present invention were serial diluted with deionized water to four times (i.e., 40 μM, 4 μM, 0.4 μM, 80 nM, 16 nM, 3.2 nM, respectively) of the final concentrations (10 μM, 1 μM, 0.1 μM, 20 nM, 4 nM, 0.8 nM, respectively), and added at 2.5 μL/well to the test wells of the 96-well plate. After incubation at 25° C. for 10 minutes, ATP (50 μM) (purchased from Promega, No.: V9102) and 0.2 μg/μL of Poly E4Y1 (purchased from Sigma, No.: P0275-25MG) were added with 2.5 μL/well and incubated at 25° C. for 120 minutes. After the reaction was completed, 10 μL of the ADP-Glo reagent (ADP-Glo™ kinase assay kit, purchased from Promega, No.: V9102) was added to each well, and reacted at 25° C. for 40 minutes. Then 20 μL of the ADP-Glo kinase detection reagent was added to each well and reacted at 25° C. for 30 minutes. The kinase activity was detected by luminescence using the ADP-Glo kinase assay kit according to the manufacture's instruction, and IC50 values of the compounds of the present invention were calculated.

JAK3 kinase = target: T2, JAK3 kinase (Homo sapiens, UniProt P52333); experiment: JAK3 kinase activity inhibition assay (ADP-Glo); assay type: biochemical; conditions: ATP 10 μM
T2 construct: purchased SignalChem J03-11G
Experimental: The JAK3 kinase (purchased from SignalChem, No.: J03-11G) was diluted with reaction buffer (40 mM Tris-HCl, pH 7.5; 20 mM MgCl2, 0.1 mg/ml BSA; 1 mM DTT) to 2 times of the final concentration (which is 0.5 ng/μL) and added with 5 μL/well to a 96-well plate. The compounds of the present invention were serial diluted with deionized water to four times (i.e., 40 μM, 4 μM, 0.4 μM, 80 nM, 16 nM, 3.2 nM, respectively) of the final concentrations (10 μM, 1 μM, 0.1 μM, 20 nM, 4 nM, 0.8 nM, respectively), and added with 2.5 μL/well to the test wells of the 96-well plate. After incubation at 25° C. for 10 minutes, 10 μM of ATP (purchased from Promega, No.: V9102) and 0.2 μg/μL of Poly E4Y1 (purchased from Sigma, No.: P0275-25MG) were added at 2.5 μL/well and reacted at 25° C. for 60 minutes. After the reaction was completed, 10 μL of the ADP-Glo reagent (ADP-Glo™ kinase assay kit, purchased from Promega, No.: V9102) was added to each well and reacted at 25° C. for 40 minutes. Then 20 μL of the ADP-Glo kinase detection reagent was added to each well and reacted at 25° C. for 30 minutes. The kinase activity was detected by luminescence using the ADP-Glo kinase assay kit according to the manufacture's instruction, and IC50 values of the compounds of the present invention were calculated.

T2 sequence (P52333 781-1124 limits assumed): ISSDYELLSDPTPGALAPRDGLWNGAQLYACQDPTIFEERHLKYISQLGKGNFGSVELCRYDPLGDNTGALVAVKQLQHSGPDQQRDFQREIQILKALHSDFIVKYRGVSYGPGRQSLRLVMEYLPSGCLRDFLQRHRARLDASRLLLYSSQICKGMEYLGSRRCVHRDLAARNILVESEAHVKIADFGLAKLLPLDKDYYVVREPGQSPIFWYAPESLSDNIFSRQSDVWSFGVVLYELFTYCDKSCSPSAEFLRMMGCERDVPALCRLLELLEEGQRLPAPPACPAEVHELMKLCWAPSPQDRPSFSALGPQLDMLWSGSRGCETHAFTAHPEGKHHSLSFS
T1 sequence (Q06187 whole entry): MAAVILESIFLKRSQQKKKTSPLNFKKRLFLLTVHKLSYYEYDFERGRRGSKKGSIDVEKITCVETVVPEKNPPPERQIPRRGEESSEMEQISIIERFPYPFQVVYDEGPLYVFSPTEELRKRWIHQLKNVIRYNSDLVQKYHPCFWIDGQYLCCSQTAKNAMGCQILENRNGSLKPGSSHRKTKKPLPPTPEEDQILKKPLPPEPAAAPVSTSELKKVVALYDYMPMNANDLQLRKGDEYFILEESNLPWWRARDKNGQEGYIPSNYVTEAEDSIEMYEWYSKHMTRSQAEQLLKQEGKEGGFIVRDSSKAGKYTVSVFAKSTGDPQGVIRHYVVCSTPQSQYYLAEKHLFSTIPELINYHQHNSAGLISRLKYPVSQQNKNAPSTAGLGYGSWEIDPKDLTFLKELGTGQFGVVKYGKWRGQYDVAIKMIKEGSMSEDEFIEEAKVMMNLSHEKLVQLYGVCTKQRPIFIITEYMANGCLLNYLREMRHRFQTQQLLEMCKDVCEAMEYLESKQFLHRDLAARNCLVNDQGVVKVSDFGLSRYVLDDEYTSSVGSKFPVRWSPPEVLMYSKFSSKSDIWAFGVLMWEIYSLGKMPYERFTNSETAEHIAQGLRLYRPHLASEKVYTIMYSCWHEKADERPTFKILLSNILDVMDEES

Row | Compound | IC50 (BTK kinase) [µM] | IC50 (JAK3 kinase) [µM]
1 | C=CC(=O)N[C@H]1CC[C@@H](Nc2nc(Nc3cnn(C)c3)nc3ccsc23)CC1 [Example 1, N-(cis-4-((2-((1-methyl-1H-pyrazol-4-yl)amino)thieno[3,2-d]pyrimidin-4-yl)amino)cyclohexyl)acrylamide] | ≤ 0.05 | –
2 | C=CC(=O)N[C@H]1CC[C@@H](Nc2nc(Nc3ccc(N4CCN(C)CC4)c(F)c3)nc3ccsc23)CC1 [Example 35] | ≤ 0.05 | –
3 | C=CC(=O)N[C@H]1CC[C@@H](Nc2nc(Nc3cnn(C4CCC4)c3)nc3ccsc23)CC1 [Example 12] | ≤ 0.05 | –
4 | C=CC(=O)N[C@H]1CC[C@@H](Nc2nc(Nc3ccc(NC4CCN(C)CC4)c(F)c3)nc3ccsc23)CC1 [Example 44] | ≤ 0.05 | –
5 | C=CC(=O)N[C@H]1CC[C@@H](Nc2nc(Nc3ccc(N4CCN(C)CC4)cc3)nc3ccsc23)CC1 [Example 34] | ≤ 0.05 | –
6 | C=CC(=O)N[C@H]1CC[C@@H](Nc2nc(Nc3ccc(N4CCN(C)CC4)c(C)c3)nc3ccsc23)CC1 [Example 36] | 0.05 to 0.1 | –
7 | C=CC(=O)N[C@H]1CC[C@@H](Nc2nc(Nc3ccc(NC4CCN(C)CC4)c(Cl)c3)nc3ccsc23)CC1 [Example 46] | ≤ 0.05 | –
8 | C=CC(=O)N[C@H]1CC[C@@H](Nc2nc(Nc3ccc(OCCN4CCCCC4)c(F)c3)nc3ccsc23)CC1 [Example 30] | 0.05 to 0.1 | –
9 | C=CC(=O)N[C@H]1CC[C@@H](Nc2nc(Nc3cnn(C4CCCC4)c3)nc3ccsc23)CC1 [Example 13] | ≤ 0.05 | –
10 | C=CC(=O)N[C@H]1CC[C@@H](Nc2nc(Nc3ccc(NC4CCN(C)CC4)cc3)nc3ccsc23)CC1 [Example 43] | ≤ 0.05 | –
11 | C=CC(=O)N[C@H]1CC[C@@H](Nc2nc(Nc3ccc(NC4CCN(C)CC4)c(C)c3)nc3ccsc23)CC1 [Example 45] | 0.05 to 0.1 | –
12 | C=CC(=O)NC1CCC(Nc2nc(Nc3cnn(C)c3)nc3ccsc23)CC1 (centres unmarked) [Example 2] | ≤ 0.05 | –
13 | C=CC(=O)N[C@H]1CC[C@@H](Nc2nc(Nc3cnn(CCOC)c3)nc3ccsc23)CC1 [Example 15] | ≤ 0.05 | –
14 | C=CC(=O)N[C@H]1CC[C@@H](Nc2nc(Nc3cnn(CCN4CCOCC4)c3)nc3ccsc23)CC1 [Example 18] | ≤ 0.05 | –
15 | C=CC(=O)N[C@H]1CC[C@@H](Nc2nc(Nc3ccc(N4CCOCC4)cc3)nc3ccsc23)CC1 [Example 33] | 0.05 to 0.1 | –
16 | C=CC(=O)N[C@H]1CC[C@@H](Nc2nc(Nc3cn[nH]c3)nc3ccsc23)CC1 [Example 4] | ≤ 0.05 | –
17 | C=CC(=O)N[C@H]1CC[C@@H](Nc2nc(Nc3cnn(CCN(C)C)c3)nc3ccsc23)CC1 [Example 17] | 0.05 to 0.1 | –
18 | C=CC(=O)N[C@H]1CC[C@@H](Nc2nc(Nc3ccc(OCCN4CCN(C)CC4)c(F)c3)nc3ccsc23)CC1 [Example 31] | ≤ 0.05 | –
19 | C=CC(=O)N[C@H]1CC[C@@H](Nc2nc(Nc3cnn(CCF)c3)nc3ccsc23)CC1 [Example 16] | ≤ 0.05 | –
20 | C=CC(=O)N[C@H]1CC[C@@H](Nc2nc(Nc3cnn(CCO)c3)nc3ccsc23)CC1 [Example 14] | ≤ 0.05 | –
21 | C=CC(=O)N[C@H]1CC[C@@H](Nc2nc(Nc3cc(C)ns3)nc3ccsc23)CC1 [Example 8] | ≤ 0.05 | –
22 | C=CC(=O)N[C@H]1CC[C@@H](Nc2nc(Nc3ccc(OC4CCN(C)CC4)c(F)c3)nc3ccsc23)CC1 [Example 49] | ≤ 0.05 | –
23 | C=CC(=O)N[C@H]1CC[C@@H](Nc2nc(Nc3ccc(NC4CCN(C(C)C)CC4)c(F)c3)nc3ccsc23)CC1 [Example 47] | ≤ 0.05 | –

Other lines, results leading:

Row | IC50 (BTK kinase) [µM] | IC50 (JAK3 kinase) [µM] | Compound
24 | ≤ 0.05 | – | C=CC(=O)N[C@H]1CC[C@@H](Nc2nc(Nc3ccc(C(=O)N4CCN(C)CC4)c(F)c3)nc3ccsc23)CC1 [Example 51]
25 | ≤ 0.05 | 0.01 to 0.1 | C=CC(=O)N1CCC[C@@H](Nc2nc(Nc3cc(C)ns3)nc3sccc23)C1 [Example 104]
26 | ≤ 0.05 | 0.01 to 0.1 | C=CC(=O)N1CC(CNc2nc(Nc3cc(C)[nH]n3)nc3ccsc23)C1 [Example 65]
27 | 0.05 to 0.1 | – | C=CC(=O)N[C@H]1CC[C@@H](Nc2nc(Nc3ccc(C(=O)NC4CCN(C)CC4)c(F)c3)nc3ccsc23)CC1 [Example 52]
28 | ≤ 0.05 | 0.01 to 0.1 | C=CC(=O)N1CC(CNc2nc(Nc3cnoc3)nc3ccsc23)C1 [Example 73]
29 | ≤ 0.05 | – | C#CC(=O)N[C@H]1CC[C@@H](Nc2nc(Nc3cnn(C)c3)nc3ccsc23)CC1 [Example 60, N-(cis-4-((2-((1-methyl-1H-pyrazol-4-yl)amino)thieno[3,2-d]pyrimidin-4-yl)amino)cyclohexyl)propynamide]
30 | ≤ 0.05 | 0.01 to 0.1 | C=CC(=O)N1CC[C@@H](N(C)c2nc(Nc3cnn(C)c3)nc3ccsc23)C1 [Example 105, (R)-1-(3-(methyl(2-((1-methyl-1H-pyrazol-4-yl)amino)thieno[3,2-d]pyrimidin-4-yl)amino)pyrrolidin-1-yl)prop-2-en-1-one]
31 | ≤ 0.05 | ≤ 0.01 | C=CC(=O)N1CCC[C@@H](Nc2nc(Nc3cnn(CC)c3)nc3ccsc23)C1 [Example 127]
32 | ≤ 0.05 | 0.01 to 0.1 | C=CC(=O)N1CC(CNc2nc(Nc3cn[nH]c3)nc3ccsc23)C1 [Example 62]
33 | ≤ 0.05 | ≤ 0.01 | C=CC(=O)N1CC[C@@H](Nc2nc(Nc3cnn(C4CCOCC4)c3)nc3ccsc23)C1 [Example 125]
34 | ≤ 0.05 | 0.01 to 0.1 | C=CC(=O)N1CC[C@@H](Nc2nc(Nc3cnn(CC)c3)nc3ccsc23)C1 [Example 118]
35 | ≤ 0.05 | ≤ 0.01 | C=CC(=O)N1CCC[C@@H](Nc2nc(Nc3cc(C)ns3)nc3ccoc23)C1 [Example 96]
36 | ≤ 0.05 | 0.01 to 0.1 | C=CC(=O)N1CC[C@@H](Nc2nc(Nc3cnn(C)c3)nc3ccoc23)C1 [Example 93]
37 | ≤ 0.05 | 0.01 to 0.1 | C=CC(=O)N1CCC[C@@H](Nc2nc(Nc3cnn(C(C)C)c3)nc3ccsc23)C1 [Example 128]
38 | ≤ 0.05 | 0.01 to 0.1 | C=CC(=O)N1CCC[C@@H](Nc2nc(Nc3cnn(C)c3)nc3ccsc23)C1 [Example 80]
39 | ≤ 0.05 | ≤ 0.01 | C=CC(=O)N1CCC[C@@H](Nc2nc(Nc3cc(C)ns3)nc3ccsc23)C1 [Example 82]
40 | 0.05 to 0.1 | 0.01 to 0.1 | C=CC(=O)N1CCC[C@@H](Nc2nc(Nc3cc(C)no3)nc3ccsc23)C1 [Example 85]
41 | ≤ 0.05 | – | C=CC(=O)N[C@H]1CC[C@@H](Nc2nc(Nc3cnn(C)c3)nc3ccoc23)CC1 [Example 57, N-(cis-4-((2-((1-methyl-1H-pyrazol-4-yl)amino)furo[3,2-d]pyrimidin-4-yl)amino)cyclohexyl)acrylamide]
42 | ≤ 0.05 | ≤ 0.01 | C=CC(=O)N1CC(CNc2nc(Nc3cnn(C)c3)nc3ccsc23)C1 [Example 61, 1-(3-(((2-((1-methyl-1H-pyrazol-4-yl)amino)thieno[3,2-d]pyrimidin-4-yl)amino)methyl)azetidin-1-yl)prop-2-en-1-one]
43 | ≤ 0.05 | – | C=CC(=O)N[C@H]1CC[C@@H](Nc2nc(Nc3ccc(C(=O)N4CCN(C)CC4)cc3)nc3ccsc23)CC1 [Example 50]
44 | ≤ 0.05 | 0.1 to 1 | C=CC(=O)N1CC(CNc2nc(Nc3cnn(C)c3)nc3ccoc23)C1 [Example 92, 1-(3-(((2-((1-methyl-1H-pyrazol-4-yl)amino)furo[3,2-d]pyrimidin-4-yl)amino)methyl)azetidin-1-yl)prop-2-en-1-one]
45 | ≤ 0.05 | ≤ 0.01 | C=CC(=O)N1CC[C@@H](Nc2nc(Nc3cnn(CCOC)c3)nc3ccsc23)C1 [Example 122]
46 | 0.05 to 0.1 | 0.1 to 1 | C=CC(=O)N1CC[C@@H](Nc2nc(Nc3cnn(C)c3)nc3sccc23)C1 [Example 101]
47 | ≤ 0.05 | 0.01 to 0.1 | C=CC(=O)N1CC[C@@H](Nc2nc(Nc3cnn(C4CCCC4)c3)nc3ccsc23)C1 [Example 121]
48 | ≤ 0.05 | 0.01 to 0.1 | C=CC(=O)N1CC[C@@H](Nc2nc(Nc3cnn(CCN(C)C)c3)nc3ccsc23)C1 [Example 124]
49 | ≤ 0.05 | 0.01 to 0.1 | C=CC(=O)N1CC[C@@H](Nc2nc(Nc3cnn(C4CCC4)c3)nc3ccsc23)C1 [Example 120]
50 | ≤ 0.05 | – | C=CC(=O)N1CC(CNc2nc(Nc3cnn(C)c3)nn3cccc23)C1 [Example 136]
